# Assay results: patent EP1800684A1, “Novel alkyl phospholipid derivatives and uses thereof” (Zentaris GmbH, priority 2005, dated 2007)
# Like-named read-outs stand apart in the source and are kept apart here.
# What was measured:
# [1] = tested on: Candida albicans (ATCC 10231); experiment: Anti-fungal susceptibility test (microdilution), fungus A; assay type: cell-based; settings: Candida albicans, ATCC10231, no visible growth after 48 hours at 35° C, read-out: MIC
# Description: (§1) The antifungal activities of the test compounds (compounds of the invention and known prior art compounds) were measured according to standard microdilution methods (Cryptococcus/Aspergillus: Ghannoum et al., Journal of Clinical Microbiology 1992, 30 (11): 2881-2886; Candida: Reference method for broth dilution susceptibility testing of yeast: proposed standard, NCCLS document M27-P, National Committee for Clinical Laboratory Standards 1992, Villanova, Pa).
# (§2) A serial dilution series starting from 64 µg/mL test compound per well down to 0.125 µg/mL test compound per well was applied for each test compound on each fungus. The MIC of each compound was defined as the concentration which produces no visible growth after 48 hours (Candida) and 72 hours (Cryptococcus, Aspergillus) of culture at 35° C.
# (§3) The following fungi were assessed: • A) Candida albicans (ATCC 10231) • B) Candida albicans (ATCC 90028) • C) Candida albicans (strain TS3, Shrikantha et al., Journal of Bacteriology 2000, 182(6):1580-1591) • D) Candida parapsilosis (ATCC 22019) • E) Cryptocoocus neoformans (ATCC 90112) • F) Cryptocoocus neoformans (strain H99; Ganendren et al., Antimicrobial Agents and Chemotherapy, 2004, 48(5):1561-1569) • G) Cryptocoocus gattii (ATCC 32608) • H) Aspergillus fumigatus (ATCC 204305) • I) Aspergillus fumigatus (strain 322-384)
# [2] = tested on: Candida albicans (ATCC 90028); experiment: Anti-fungal susceptibility test (microdilution), fungus B; assay type: cell-based; settings: Candida albicans, ATCC90028, no visible growth after 48 hours at 35° C, read-out: MIC
# Description: as §1, §2, §3
# [3] = tested on: Candida albicans (strain TS3); experiment: Anti-fungal susceptibility test (microdilution), fungus C; assay type: cell-based; settings: Candida albicans, no visible growth after 48 hours at 35° C, read-out: MIC
# Description: as §1, §2, §3
# [4] = tested on: Candida parapsilosis (ATCC 22019); experiment: Anti-fungal susceptibility test (microdilution), fungus D; assay type: cell-based; settings: ATCC22019, no visible growth after 48 hours at 35° C, read-out: MIC
# Description: as §1, §2, §3
# [5] = tested on: Cryptocoocus neoformans (ATCC 90112); experiment: Anti-fungal susceptibility test (microdilution), fungus E; assay type: cell-based
# Description: as §1, §2, §3
# [6] = tested on: Cryptocoocus neoformans (strain H99); experiment: Anti-fungal susceptibility test (microdilution), fungus F; assay type: cell-based
# Description: as §1, §2, §3
# [7] = tested on: Cryptocoocus gattii (ATCC 32608); experiment: Anti-fungal susceptibility test (microdilution), fungus G; assay type: cell-based
# Description: as §1, §2, §3
# [8] = tested on: Aspergillus fumigatus (ATCC 204305); experiment: Anti-fungal susceptibility test (microdilution), fungus H; assay type: cell-based; settings: Aspergillus fumigatus, ATCC204305, no visible growth after 72 hours at 35° C, read-out: MIC
# Description: as §1, §2, §3
# [9] = tested on: Aspergillus fumigatus (strain 322-384); experiment: Anti-fungal susceptibility test (microdilution), fungus I; assay type: cell-based; settings: Aspergillus fumigatus, no visible growth after 72 hours at 35° C, read-out: MIC
# Description: as §1, §2, §3
# [10] = tested on: Trypanosoma cruzi (Tulahuan-LACZ amstigotes in PEM); experiment: In vitro drug activity assay, protozoon A (amastigotes in murine peritoneal macrophages, CPRG readout); assay type: cell-based; settings: infected macrophages exposed for 3 days
# Description: Murine (CD1) peritoneal macrophages were harvested 24 hours after starch induction and dispensed into 96-well plates at a concentration of 4 x 10^5 mL. After 24 hours, the cells were infected with Trypanosoma cruzi Tulahuan LAC-Z amastigotes (grown and cultured according to Buckner et al., Infection and Immunity 1999, 67(1): 403-409). 24 hours later, the infected cells were exposed to the test compounds (compounds of the invention as well as known prior art compounds) for 3 days and 50 µL of 500 µM CPRG-1% Nonidet P-40 was added to each well. The plates were read after 2 to 5 hours at 570 nm (Buckner et al., Antimicrobial Agents and Chemotherapy 1996, 40(11): 2592-2597). ED50 values were calculated with Msxlfit (IDBS).
# (§4) The following protozoa were assessed: • A) Trypanosoma cruzi (Tulahuan-LACZ amstigotes in PEM, Lorente SO et al., Antimicrobial agents and chemotherapy 2004, 48(8): 2937-2950; Buckner et al., Infection and Immunity 1999, 67(1): 403-409; Buckner et al., Antimicrobial Agents and Chemotherapy 1996, 40(11): 2592-2597) • B) Trypanosoma brucei rhodesiense (strain STIB900, Lorente SO et al., Antimicrobial agents and chemotherapy 2004, 48(8): 2937-2950; Habtemariam S, BMC Pharmacology 2003, 3:6) • C) Plasmodium falciparum (strain K1, Korsinczky M et al., Antimicrobial agents and chemotherapy 2000, 44(8): 2100-2108; Thaitong S and Beale GH, Trans. R. Soc. Trop. Med. Hyg. 1981, 75: 271-273; Trager W and Jensen JB, Science 1976, 193: 673-675) • D) Plasmodium falciparum (strain 3D7, Mu et al., PLoS Biology 2005, 3(10): e335)
# [11] = tested on: Trypanosoma brucei rhodesiense (strain STIB900); experiment: In vitro drug activity assay, protozoon B (bloodstream form trypomastigotes, Alamar Blue); assay type: cell-based; settings: incubated for 72 hours
# Description: Trypanosoma brucei rhodesiense STIB900 bloodstream form trypomastigotes were maintained in HMI-18 medium (Hirumi H, Hirumi K, J Parasitol. 1989, 75(6):985-989) with 15% heat-inactivated fetal calf serum at 37°C, 5% CO2, humidified atmosphere. Trypomastigotes were washed and resuspended in fresh medium at a concentration of 2 x 10^5 mL. Test compounds were given to the trypomastigotes and plates were incubated for 72 hours at 37°C, 5% CO2, humidified atmosphere. At 72 hours the plates were assessed microscopically before Alamar Blue was added (Raz et al., Acta Trop. 1997, 68: 139-147). Plates were read after 5 to 6 hours at EX/EM 530/585 nm with a filter cutoff at 550 nm. ED50 values were calculated with Msxlfit (IDBS).
# as §4
# [12] = tested on: Plasmodium falciparum (strain K1); experiment: In vitro drug susceptibility assay, protozoon C (3[H]-hypoxanthine method); assay type: cell-based
# Description: (§5) Plasmodium falciparum strain K1 and strain 3D7 parasites were cultured according to Trager W and Jensen JB (Science 1976, 193: 673-675). In vitro drug susceptibility assays with the test compounds were carried out according to Korsinczky M et al. (Antimicrobial agents and chemotherapy 2000, 44(8): 2100-2108) and Fivelman QL et al. (Antimicrobial agents and chemotherapy 2004, 48(11): 4097-4102) using a ^3[H]-hypoxanthine radioisotope method. ED50 values were calculated with Msxlfit (IDBS).
# as §4
# [13] = tested on: Plasmodium falciparum (strain 3D7); experiment: In vitro drug susceptibility assay, protozoon D (3[H]-hypoxanthine method); assay type: cell-based
# Description: as §5, §4
# [14] = tested on: Leishmaniasis; settings: clinical phase III trials, parenteral; cited from earlier work
Structure (SMILES),MIC [1] [µg/mL],MIC [2] [µg/mL],MIC [3] [µg/mL],MIC [4] [µg/mL],MIC ([5]; 72 h) [µg/mL],MIC ([6]; 72 h) [µg/mL],MIC ([7]; 72 h) [µg/mL],MIC [8] [µg/mL],MIC [9] [µg/mL],ED50 (µg/mL) [10],ED50 (µg/mL) [11],ED50 (µg/mL) [12],ED50 (µg/mL) [13],"MIC ([5]; fungus E, no visible growth after 72 hours at 35° C, read-out: MIC) [µg/mL]","MIC ([6]; fungus F, no visible growth after 72 hours at 35° C, read-out: MIC) [µg/mL]","MIC ([7]; fungus G, no visible growth after 72 hours at 35° C, read-out: MIC) [µg/mL]",efficient in % of the cases [14] [%]
"CCCCCCCCCCCCCCCCOP(=O)([O-])OCC[N+]12CCC(CC1)CC2 [Compound 3, Phosphoric acid 2-(1-aza-bicyclo[2.2.2]oct-1-yl)-ethyl ester hexadecyl ester]",1,1,2,2,1.5,1,0.75,3,2,"0,33 µg/mL","25,03 µg/mL","8,03 µg/mL","2,25 µg/mL",,,,
"CCCCCCCCCCCCCCCCCCOP(=O)([O-])OC1CC[N+](CC)(CC)CC1 [Compound 5, Phosphoric acid 1,1-diethyl-piperidin-4-yl ester octadecyl ester]",2,2,2,3,,,,6,8,"1,43 µg/mL","14,20 µg/mL","21,26 µg/mL","16,31 µg/mL",1.5,2,0.75,
NC[C@@H]1O[C@H](O[C@H]2[C@@H](O)[C@H](O[C@@H]3[C@@H](O)[C@H](N)C[C@H](N)[C@H]3O[C@H]3O[C@H](CO)[C@@H](O)[C@H](O)[C@H]3N)O[C@@H]2CO)[C@H](N)[C@@H](O)[C@@H]1O [paromomycin],,,,,,,,,,,,,,,,,95
